Converted amounts (≈) assume the structure as drawn. Read-outs that look alike come from different tables or passages of the source.
Assays:
[1] = Determination of acidity constants (pKa) by potentiometric titration; conditions: MeOH/H2O (1:1 v/v) solution
Protocol: 0.1 M NaOH in H2O/MeOH (1 : 1 v/v).
The acidity constants of benzosiloxaboroles 1e, 2e, 6, 20 and 22–24 were determined by standard pH titration with 0.05 M aq. NaOH. The measurements were performed using a thermostated (25.0 °C) glass vessel equipped with a magnetic stirrer and a 10 mL burette. Prior to the measurement, the pH glass electrode was calibrated using borax and phosphate buffers. A solution of the analyzed compound (ca. 20–40 mg) in a mixture of MeOH/H2O (v/v 1 : 1, 30 mL) was titrated until the pH of the solution exceeded the value of 12.0.

[2] = test system: S. aureus NMI 1576 K MRSA; experiment: Antibacterial activity against clinical MRSA: MIC/MBC; type: cell-based; conditions: Staphylococcus aureus, NMI 1576 K MRSA
Outline: (§1)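 MIC values come from CLSI/EUCAST-based dilution testing, with cidal concentrations (MBC or MFC) assessed by CLSI procedures and zones by disc diffusion. Compounds were prepared in DMSO.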

[3] = test system: S. aureus NMI 1712 K MRSA; experiment: as above; type: cell-based; conditions: Staphylococcus aureus, NMI 1712 K MRSA
Outline: as §1

[4] = test system: S. aureus NMI 1991 K MRSA; experiment: as above; type: cell-based; conditions: Staphylococcus aureus, NMI 1991 K MRSA
Outline: as §1

S. aureus NMI 664 K MRSA = experiment: as above; type: cell-based; conditions: Staphylococcus aureus, NMI 664 K MRSA
Outline: as §1

[5] = test system: Staphylococcus aureus, MSSA and MRSA strains; experiment: Antibacterial activity against S. aureus strains (text summaries); type: cell-based; conditions: for MIC: Staphylococcus aureus
Protocol: (§2) Direct antimicrobial activity was determined against the following standard strains: (1) Gram-positive cocci: methicillin-sensitive Staphylococcus aureus ATCC 6538P (MSSA), methicillin-resistant S. aureus subsp. aureus ATCC 43300 (MRSA), S. epidermidis ATCC 12228, Enterococcus faecium ATCC 6057, E. faecalis ATCC 29212, Bacillus subtilis ATCC 6633; (2) Gram-negative bacteria from Enterobacteriales order: Klebsiella pneumoniae ATCC 13883, Escherichia coli ATCC 25922, Enterobacter cloacae DSM 6234, Proteus mirabilis ATCC 12453, Serratia marcescens ATCC 13880; (3) Gram-negative non-fermentative rods: Acinetobacter baumannii ATCC 19606, Pseudomonas aeruginosa ATCC 27853, Stenotrophomonas maltophilia ATCC 12714, S. maltophilia ATCC 13637, Burkholderia cepacia ATCC 25416, Bordetella bronchiseptica ATCC 4617; (4) yeasts: Candida albicans ATCC 90028, C. krusei ATCC 6258, C. parapsilosis ATCC 22019, C. tropicalis (Castellani) Berkhout ATCC 750, C. tropicalis IBA 171, C. guilliermondii IBA 155, and Saccharomyces cerevisiae ATCC 9763. Moreover, 5 clinical strains of methicillin-resistant S. aureus were also included: NMI 664 K, NMI 1576 K, NMI 1712 K, NMI 1991 K, and NMI 2541 K. All strains were stored at −80 °C. Prior to testing, each bacterial strain was subcultured twice on tryptic soy agar TSA (bioMerieux) medium and yeast strains on Sabouraud dextrose agar (bioMerieux) for 24–48 h at 30 °C to ensure viability. The antimicrobial activity was evaluated as previously described[26] by the disc-diffusion method and the MIC determination assays according to the EUCAST (ref. [71] and [72]) and CLSI (ref. [53] and [73]) recommendations. Assessment of bactericidal (MBC) and fungicidal (MFC) activities was performed according to the CLSI recommendations.[54,74] The following reference agents were used: fluconazole (in the case of fungi), linezolid (for Gram-positive bacteria), and nitrofurantoin (for Gram-negative rods). The new benzosiloxaboroles were dissolved in DMSO (Sigma).

Gram-negative rods = experiment: Antibacterial activity against Gram-negative rods with or without PAβN (text summaries); type: cell-based; conditions: Gram-negative rods
Protocol: as §2, with “The following reference agents were used: fluconazole (in the case of fungi), linezolid (for Gram-positive bacteria), and nitrofurantoin (for Gram-negative rods).” left out
Considering that the MDR efflux pumps often contribute to Gram-negative rod resistance, the MIC values of studied agents, with or without the pump inhibitor, PAβN (20 μg mL^−1) (Sigma), were determined.[75] The MIC was determined using Mueller–Hinton II broth medium (MHB) (Becton Dickinson) by the broth microdilution method, according to the CLSI guideliness.[53] To minimize the influence of PAβN on the destabilization of bacterial cell covers, the tests were conducted in the presence of 1 mM MgSO4 (Sigma).[76] At least a 4-fold reduction in the MIC value after the addition of PAβN was considered significant.[56,77]

[6] = read-out: MBC (first MBC where Eagle effect)
[7] = read-out: second MBC (Eagle effect)

C[Si]1(C)OB(O)c2cc(F)c(SCCS(=O)(=O)c3ccccc3)c(F)c21 [Compound 20, 5,7-Difluoro-1,1-dimethyl-6-((2-(phenylsulfonyl)ethyl)thio)benzo[c][1,2,5]oxasilaborol-3(1H)-ol] showed a pKa [1] of 5.7, an MBC [2, 6] of 12.5 µg/mL (≈ 30.2 µM) and an MIC ([2]; read-out: MIC) of 6.25 µg/mL (≈ 15.1 µM). It also gave an MBC [2, 7] of 400 µg/mL (≈ 965 µM), an MBC [3, 6] of 12.5 µg/mL (≈ 30.2 µM) and an MIC ([3]; read-out: MIC) of 6.25 µg/mL (≈ 15.1 µM). It also gave an MBC [3, 7] of 400 µg/mL (≈ 965 µM), an MBC [4, 6] of 12.5 µg/mL (≈ 30.2 µM) and an MIC ([4]; read-out: MIC) of 6.25 µg/mL (≈ 15.1 µM). It also gave an MBC [4, 7] of 400 µg/mL (≈ 965 µM), an MBC (S. aureus NMI 664 K MRSA; [6]) of 12.5 µg/mL (≈ 30.2 µM) and an MIC (S. aureus NMI 664 K MRSA; read-out: MIC) of 6.25 µg/mL (≈ 15.1 µM). For the same compound, the MBC (S. aureus NMI 664 K MRSA; [7]) was 400 µg/mL (≈ 965 µM), the “Eagle effect (paradoxical growth) during MBC determination” value ([5]; S. aureus ATCC 6538P and five MRSA clinical strains) was “Eagle effect” and the MIC ([5]; both MSSA and MRSA strains, read-out: MIC values against Staphylococcus aureus) was 1.56 to 12.5 µg/mL (≈ 3.77 to 30.2 µM). The MIC ([5]; standard and five clinical MRSA strains (Table 4), read-out: MIC (MRSA)) was 3.12 to 6.25 µg/mL (≈ 7.53 to 15.1 µM) and the “efflux assay result (MIC with PAβN)” value (Gram-negative rods) was “actively extruded from bacterial cells”.

From PMC11110727, “Exploiting thiol-functionalized benzosiloxaboroles for achieving diverse substitution patterns – synthesis, characterization and biological evaluation of promising antibacterial agents” (RSC Medicinal Chemistry, 2024)
